Reference: patent publication US6410566B1, “Cyclic amine derivatives and their use as drugs” (Teijin Limited, priority 2000, dated 2002)

Tests used:
[1] = target: T1, binding of human MIP-1α to THP-1 cells (Homo sapiens, UniProt P32246); test: Inhibition of MIP-1α binding to THP-1 cells
T1 construct: endogenous in cells; host or cells: THP-1 (human monocytic leukemia cell line), whole cells
T1 sequence (P32246 1-355): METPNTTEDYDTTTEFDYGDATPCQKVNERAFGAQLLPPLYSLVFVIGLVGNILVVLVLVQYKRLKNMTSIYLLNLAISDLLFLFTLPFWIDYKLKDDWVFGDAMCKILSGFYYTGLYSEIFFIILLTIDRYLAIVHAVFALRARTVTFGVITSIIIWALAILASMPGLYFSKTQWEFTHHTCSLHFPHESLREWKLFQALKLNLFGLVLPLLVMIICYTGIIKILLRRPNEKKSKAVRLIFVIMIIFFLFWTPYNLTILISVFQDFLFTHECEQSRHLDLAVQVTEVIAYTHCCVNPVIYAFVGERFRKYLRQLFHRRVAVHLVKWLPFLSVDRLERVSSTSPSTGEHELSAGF
Experimental: Measurement of Inhibition of MIP-1α Binding to THP-1 Cells by Test Compounds
(§1) Human monocytic leukemia cell line THP-1 was suspended in assay buffer (RPMI-1640 (Gibco-BRL Co.) containing 0.1% BSA and 25 mM HEPES adjusted to pH 7.4) to give a cell suspension of a concentration of 1×10^7 cells/mL. The test compound was diluted in the assay buffer and used as the test compound solution. Iodinated human MIP-1α (DuPont NEN Co.) was diluted in assay buffer to 250 nCi/mL and used as the labeled ligand solution. In a 96 well filter plate (Millipore Co.), 25 μL of test compound solution, 25 μL of labeled ligand solution and 50 μL of cell suspension were aliquoted into each well in this order, stirred (total reaction volume 100 μL), and incubated for one hour at 18° C.
(§2) After the reaction, the reaction solution was filtered, and the filter was washed twice with 200 μL of cold PBS (200 μL of cold PBS was added and then filtered). The filter was air-dried and 25 μL of liquid scintillator was added into each well. The radioactivity retained by the cells on the filter were measured using TopCounit (Packard Instrument Co.).
To calculate the ability of test compounds to inhibit binding of human MIP-1α to THP-1 cells, non-specific binding determined by adding 100 ng of unlabeled human MIP-1α (Peprotech Co.) in place of the test compound was subtracted, while the counts with no test compound added was taken as 100%.
(§3) Inhibition (%)={1−(A−B)/(C−B)}×100
(A, counts with test compound added; B, counts with 100 ng of unlabeled human MIP-1α added; C, counts with [^125I]-labeled human MIP-1α added).

[2] = target: T2, binding of human MCP-1 to THP-1 cells (Homo sapiens, UniProt P41597); test: Inhibition of binding of [125I]-labeled baculovirus expressed human MCP-1 to THP-1 cells (Method 1); details: for inhibition at 100 µM: Method 1, at 100 μM
T2 construct: endogenous in cells; host or cells: THP-1 (human monocytic leukemia cell line), whole cells
T2 sequence (P41597 1-360 isoform P41597-2): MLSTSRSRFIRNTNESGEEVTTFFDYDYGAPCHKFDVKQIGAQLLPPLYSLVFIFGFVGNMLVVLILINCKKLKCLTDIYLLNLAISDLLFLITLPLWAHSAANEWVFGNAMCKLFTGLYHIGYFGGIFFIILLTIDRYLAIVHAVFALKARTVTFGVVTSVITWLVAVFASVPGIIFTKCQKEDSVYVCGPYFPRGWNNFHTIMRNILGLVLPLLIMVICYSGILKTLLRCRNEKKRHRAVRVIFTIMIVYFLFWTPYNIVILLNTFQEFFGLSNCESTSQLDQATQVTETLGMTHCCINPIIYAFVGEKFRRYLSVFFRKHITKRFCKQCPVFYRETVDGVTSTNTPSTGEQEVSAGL
Text: Measurement of Inhibition of MCP-1 Binding to THP-1 Cells 1. Construction of recombinant baculovirus carrying the human MCP-1 gene Based on the previously published human MCP-1 gene sequence (for example T. Yoshirnura et al., FEBS Lett., 1989, 244, 487-493), two synthetic DNA primers ([NT] and [NT]) flanked by restriction enzyme sites were used to amplify a DNA fragment from cDNA derived from human endothelial cells (purchased from Kurabow Co.); the amplified fragment was cut with the restriction enzymes (PstI and XbaI), ligated into a transfer vector pVL1393 (Invitrogen Co.), and the resulting vector was co-transfected along with infectious baculovirus into Sf-9 insect cells and the supernatant was plaque assayed to yield human MCP-1 gene baculovirus recombinant. […] Using the method of K. Ishii et al. […] The culture supernatant was affinity purified using a heparin Sepharose column (Pharmacia Co.) and then further purified using reverse phase HPLC (Vydac C18 column) to prepare purified human MCP-1. […] 3-1. […] The test. compound was diluted in the assay buffer and used as the test compound solution. [^125I]-labeled human MCP-1 described above was diluted in assay buffer to 1 mCi/mL and used as the labeled ligand solution. In a 96 well filter plate (Millipore Co.), 25 μL of test compound solution, 25 μL of labeled ligand solution and 50 μL of cell suspension were aliquoted into each well in this order, stirred (total reaction volume 100 μL), and incubated for one hour at 18° C. After the reaction, the reaction solution was filtered, and the filter was washed twice with 200 μL of cold PBS (200 μL of cold PBS was added and then filtered). The filter was air-dried and 25 μL of liquid sciatillator was added into each well. The radioactivity retained by the cells on the filter were measured using TopCount (Packard Instrument Co.). To calculate the ability of test compound to inhibit binding of human MCP-1 to THP-1 cells, non-specific binding determined by adding 100 ng of unlabeled human MCP-1 in place of the test compound was subtracted, while the counts with no test compound added was taken as 100%. Inhibition (%)=(1-(A-B)/(C-B))×100 (A, counts with test compound added; B, counts with 100 ng of unlabeled human MCP-1 added; C, counts with [^125I]-labeled human MCP-1 added).

THP-1 cells = test: Inhibition of cell chemotaxis caused by MCP-1; format: cell-based; details: Homo sapiens, MCP-1 20 ng/mL, read-out: inhibition of cell migration IC50
Experimental: Measurement of Inhibition of Cell Chemotaxis
In order to determine the inhibition of cell chemotaxis by the compounds of this invention, we measured cell chemotaxis caused by monocyte chemotactic factor MCP-1 using the human monocytic leukemia cell line THP-1 as the chemotactic cell according to the method of Fall et al. (J. Immunol. Methods, 190, 33,239-247). 2×10^6 cells/mL of THP-1 cells (suspended in RPMI-1640 (Flow Laboratories Co.)+10% FCS) was placed in the upper chamber (200 μL) of a 96 well micro-chemotaxis chamber (Neuroprobe; registered tradename), and human recombinant MCP-1 in a same solution (Peprotech Co.) at a final concentration of 20 ng/mL was placed in the lower chamber, with a polycarbonate filter (PVP-free, Neuroprobe; registered tradename) placed between the two chambers. These were incubated at 37° C. for 2 hr in 5% CO2.
The filter was removed, and the cells which had migrated to the underside of the filter was fixed, stained using Diff Quick (Kokusai Shiyaku Co.) and then quantitated using a plate reader (Molecular Device Co.) at a wavelength of 550 nm to determine the index of cell migration as a mean of 3 wells. In addition, test compounds were placed in the upper and lower chambers along with THP-1 and MCP-1, respectively, and the inhibition of cell migration (inhibition IC50 (μM)) was determined.

[3] = target: T2, binding of human MCP-1 to THP-1 cells; test: Inhibition of binding of [125I]-labeled baculovirus expressed human MCP-1 to THP-1 cells (Method 2); details: for inhibition at 1 µM: Method 2, at 1 μM
Text: 1. Construction of recombinant baculovirus carrying the human MCP-1 gene
Based on the previously published human MCP-1 gene sequence (for example T. Yoshirnura et al., FEBS Lett., 1989, 244, 487-493), two synthetic DNA primers (5′-[…]-3′ and 5′-[…]-3′) flanked by restriction enzyme sites were used to amplify a DNA fragment from cDNA derived from human endothelial cells (purchased from Kurabow Co.); the amplified fragment was cut with the restriction enzymes (PstI and XbaI), ligated into a transfer vector pVL1393 (Invitrogen Co.), and the resulting vector was co-transfected along with infectious baculovirus into Sf-9 insect cells and the supernatant was plaque assayed to yield human MCP-1 gene baculovirus recombinant.
2. Synthesis of [^125I]-labeled human MCP-1 expressed in baculovirus
Using the method of K. Ishii et al. (Biochem Biophys Research Communications, 1995, 206, 955-961), 5×10^6 Sf-6 insect cells was infected with 5×10^7 PFU (plaque forming units) of the above human MCP-1 recombinant baculovirus and cultured for 7 days in Ex-Cell 401 medium. The culture supernatant was affinity purified using a heparin Sepharose column (Pharmacia Co.) and then further purified using reverse phase HPLC (Vydac C18 column) to prepare purified human MCP-1. The purified human MCP-1 was protein labeled by Amersham Co. using the Bolton Hunter method to yield [^125I]-labeled baculovirus expressed human MCP-1 (specific activity 2000 Ci/mmol).
3-2. Measurement of inhibition of binding of [^125I]-labeled baculovirus expressed human MCP-1 to THP-1 cells (Method 2)
as §1, with “(50” for “(RPMI-1640 (Gibco-BRL Co.) containing 0.1% BSA and 25”, “HEPES,” for “HEPES adjusted to”, “7.4, 1.0 mM CaCl2, 5.0% mM MgCl2, 0.5% BSA)” for “7.4)”, “[^125I]-labeled” for “Iodinated”, “MCP-1 described above” for “MIP-1α (DuPont NEN Co.)”, “1 mCi/mL” for “250 nCi/mL”
as §2, with “TopCount” for “TopCounit”
To calculate the ability of test compound to inhibit binding of human MCP-1 to THP-1 cells, non-specific binding determined by adding 100 ng of unlabeled human MCP-1 in place of the test compound was subtracted, while the counts with no test compound added was taken as 100%.
as §3
(A, counts with test compound added; B, counts with 100 ng of unlabeled human MCP-1 added; C, counts with [^125I]-labeled human MCP-1 added).

Which inhibition at 10 µM [1] does the source give for `O=C(CNC(=O)c1ccccc1)NCC1CCN(Cc2ccc(Cl)cc2)CC1` [Compound No. 458, 4-{(N-Benzoylglycyl)amino}methyl-1-(4-chlorobenzyl)piperidine] here?
Its inhibition at 10 µM is 50 to 80%.

What about the inhibition at 100 µM [2] of the same compound?
The inhibition at 100 µM was over 80%.

`O=C(CNC(=O)c1cccc(C(F)(F)F)c1)NCC1CCN(Cc2ccc(Cl)cc2)CC1` [Compound No. 461, 1-(4-chlorobenzyl)-4-[{N-(3-(trifluoromethyl)benzoyl)glycyl}aminomethyl]piperidine] was tested. Which IC50 (THP-1 cells) did it give?
Its IC50 is under 0.1 µM.

And the inhibition at 10 µM [1]?
The inhibition at 10 µM was over 80%.

Which inhibition at 10 µM [1] does the source give for `CN(CC1CCN(Cc2ccc(Cl)cc2)CC1)C(=O)CNC(=O)c1cccc(C(F)(F)F)c1` [Compound No. 520, 1-(4-chlorobenzyl)-4-[N-methyl-N-{N-(3-(trifluoromethyl)benzoyl)glycyl}aminomethyl]piperidine] here?
The inhibition at 10 µM was 50 to 80%.

What about the inhibition at 10 µM ([2]; Method 1, at 10 μM) of the same compound?
The inhibition at 10 µM was 50 to 80%.

How did the inhibition at 10 µM [1] turn out when `O=C(NCC(=O)N(CC1CCN(Cc2ccc(Cl)cc2)CC1)CC(c1ccccc1)c1ccccc1)c1ccccc1` [Compound No. 524, 4-{N-(N-Benzoylglycyl)-N-(2,2-diphenylethyl)aminomethyl}-1-(4-chlorobenzyl)piperidine] was run?
Its inhibition at 10 µM is 20 to 50%.

With `CC(C)[C@H](NC(=O)c1cccc(C#N)c1)C(=O)NCC1CCN(Cc2ccc(Cl)cc2)CC1` [Compound No. 619, 1-(4-Chlorobenzyl)-4-[{N-(3-cyanobenzoyl)valyl}aminomethyl]piperidine] as the compound, how does the inhibition at 10 µM [1] read?
Its inhibition at 10 µM is 50 to 80%.

`CC(C)c1ccc(S(=O)(=O)NCC(=O)NCC2CCN(Cc3ccc(Cl)cc3)CC2)cc1` [Compound No. 869, 1-(4-Chlorobenzyl)-4-[{N-(4-isopropylphenylsulfonyl)glycyl}aminomethyl]piperidine] was tested. Which inhibition at 10 µM [1] did it give?
The inhibition at 10 µM was over 80%.

And the inhibition at 100 µM [2]?
The inhibition at 100 µM was 20 to 50%.

With `Nc1ccc(Br)cc1C(=O)NCC(=O)NCC1CCN(Cc2ccc(Cl)cc2)CC1` [Compound No. 1042, 4-{N-(2-amino-5-bromobenzoyl)glycyl}aminomethyl-1-(4-chlorobenzyl)piperidine] as the compound, how does the IC50 (THP-1 cells) read?
The IC50 was under 0.1 µM.

And the inhibition at 2 µM [1]?
Its inhibition at 2 µM is 20 to 50%.

What about the inhibition at 10 µM [1] of the same compound?
The inhibition at 10 µM was 50 to 80%.

And the inhibition at 1 µM [3]?
Its inhibition at 1 µM is over 80%.

And the inhibition at 10 µM ([3]; Method 2, at 10 μM)?
The inhibition at 10 µM was over 80%.

What does the source list for `Nc1cc(Cl)ccc1CN1CCC(CNC(=O)CNC(=O)c2cc(C(F)(F)F)ccc2N)CC1` [Compound No. 1919, 4-[{N-(2-Amino-5-trifluoromethylbenzoyl)glycyl}aminomethyl]-1-(2-amino-4-chlorobenzyl)piperidine]?
IC50 (THP-1 cells): < 0.1 µM; inhibition at 2 µM [1]: 20 to 50%; inhibition at 1 µM [3]: > 80%

Which results are given for `O=C(CNC(=O)c1ccccc1)NC1CCN(Cc2ccc(Cl)cc2)C1` (centres unmarked) [compound 1, 3-(N-Benzoylglycyl)amino-1-(4-chlorobenzyl)pyrrolidine]?
inhibition at 10 µM [1]: 50 to 80%; inhibition at 100 µM [2]: 50 to 80%
